# Reference: a melting point compilation (Tetko et al.; mined from patent text by program, amines drawn as free bases though some values may be those of a salt)
row,SMILES,melting point [°C]
1,Cc1ccc(-c2nc3ccccc3nc2-c2ccc(C)cc2)cc1,149
2,Cc1c(-c2ccccc2)oc2c(C(=O)N(C)CCO)cccc2c1=O,128 to 130
3,CC(Sc1ccccc1)n1cc(C2=C(c3cn(C(C)Sc4ccccc4)c4ccccc34)C(=O)NC2=O)c2ccccc21 (centres undefined),102 to 105
4,CCNC(=O)N1CCN(C2CCCc3ccc(OC)cc32)CC1 (centres undefined),141 to 143
5,O=C(O)c1cc(F)c(F)cc1Nc1ccnn1-c1ccccn1,242 to 245
6,Oc1ccc(-c2nn(-c3ccc(Br)cc3)c3c(C(F)(F)F)cccc23)cc1,176 to 177
7,CC(C)c1nn(-c2ccc(C(F)(F)F)cn2)cc1CCCOc1cc(CCC(=O)O)n(C)n1,131 to 132
8,Cc1ccc2c(c1)[nH]c(=O)n2C1CCN(C2CCN(C(=O)OC(C)(C)C)CC2)CC1,210 to 211
9,CNC1=CC=CC(OCCCN2CCC(c3noc4cc(F)ccc34)CC2)(C(C)=O)C1 (centres undefined),151 to 153
10,CCCc1c(OCCCCCCc2cccc(OCCCCCO)c2CCC(=O)O)ccc2c1OCCC2=O,102 to 103
11,COc1ccc(-c2nc(C)c(-c3cccnc3)[nH]2)cc1OC,246 to 248
12,Nc1c(-c2ccccc2)cc(-c2ccccc2)c2cccnc12,100 to 102
13,C=CCOn1c(=O)[nH]c2cc(F)c(F)cc2c1=O,220 to 221
14,COc1ccccc1N1CCN(CCCCCn2c(=O)[nH]c3cscc3c2=O)CC1,148 to 153
15,CS(=O)(=O)Nc1ccc(Sc2cnc(N)s2)cc1,185 to 187
16,CCOc1ccc(-c2ncccc2S(=O)(=O)Nc2ncc(C)nc2OC)cc1,162 to 163
17,COc1ccc(-n2c(=O)c3c(c4cccnc42)OCC3)cc1,282 to 284
18,CN(C)Cc1ccc(CSCCNC2=NS(=O)(=O)c3cscc32)o1,120 to 124
19,O=C(O)c1cc2c3c(c1)CCCC3CCC2,208 to 209
20,CCN(CC)C(=O)Cn1c(-c2ccc(C(F)(F)F)cc2)nc2cccnc21,140 to 142
21,N#CCCc1coc2ccc(Br)cc12,56 to 58
22,O=C(NC(CCC(=O)N1CCCC1C(=O)O)C(=O)O)c1ccccc1 (centres undefined),102 to 104
23,CC(=O)OC1CSC(Oc2cncc(-c3ccncc3Cl)c2)C(OC(C)=O)C1OC(C)=O (centres undefined),175
24,COC(=O)c1ccc(OCCNC(=O)C2Cc3ccccc3N2S(=O)(=O)c2ccc(-c3cccc(C(F)(F)F)c3)cc2)c(C(F)(F)F)c1 (centres undefined),92 to 98
25,CC(=O)Oc1cccc2c(-c3cccs3)c3cccc(OC(C)=O)c3c(OC(C)=O)c12,260
26,CC(C)(C1OCCO1)C(O)C(Cc1ccc(Cl)cc1Cl)n1cncn1 (centres undefined),178 to 181
27,Cc1cccc(NC(=O)NC2CN(C(=O)C(C)(C)C)c3ccc(C)cc3N(CC(=O)c3ccccc3C)C2=O)c1 (centres undefined),218 to 220

row,SMILES,melting point [°C]
1,CC(=O)N1CCCC1n1nccc1-c1ccc(Oc2ccc(F)cc2)cc1 (centres undefined),90 to 95
2,OCc1nccc(N2CCOCC2)n1,76 to 78
3,COc1ccc2cc(-c3ncn[nH]3)ccc2n1,198 to 200
4,O=C(C(=O)c1cccc(Br)c1)c1ccccc1,78 to 82
5,CN1CCN(c2ccc(NC(=O)c3cc4ccccc4s3)cc2C#N)CC1,263 to 264
6,CC1CCC2(C)C(=CCC3C2CCC2(C)C3CCC23OCCO3)C1 (centres undefined),121 to 122
7,CCNCC1(C)CN(c2c(F)cc3c(=O)c(C(=O)O)cn(C4CC4)c3c2F)C1,250 to 255
8,O=CNc1ncc(C#Cc2ccc(Cl)cc2)c(Sc2ccc(O)cc2)n1,261 to 262
9,CC(C)(C)OC(=O)c1ccc2c(c1)NCc1ccccc1O2,121 to 123
10,CCc1c2s[nH]c(=O)c2c(=O)n2ccc(N3CCC(N(C)C)C3)cc12 (centres undefined),217 to 219
11,COc1ccc(F)cc1C(C)(C)CC(O)(C(=O)Nc1ccccc1)C(F)(F)F (centres undefined),83 to 85
12,CS(=O)(=O)NS(=O)(=O)c1ccc(CCCl)cc1,149 to 151
13,CCCCCCCCCC[C@H](O)c1ccc2ccccc2c1,53 to 54
14,COc1cc2cc3c(Nc4ccc(Oc5ccccc5)c(Cl)c4)c(C#N)cnc3cc2cc1OCCN1CCOCC1,190 to 194
15,Nc1nc(-c2cc(Cl)ccc2Cl)nc(N2CCCCC2C(=O)O)n1 (centres undefined),237 to 240
16,CCOC(=O)C(C)(C)Cc1c(SC(C)(C)C)c2cc(O)ccc2n1Cc1ccc(Cl)cc1,151 to 152
17,FC1(F)CCN(c2cccc3c2OCCNC3)C1,54
18,c1ccc(-c2ccc3[nH]c4c(c3c2)CCNCC4)cc1,> 250
19,CCc1[nH]c2cccc3c2c1CC1C3CC(NC(=O)N(CC)CC)CN1C (centres undefined),165 to 168
20,COc1cc(Nc2nc3cccc(-c4ccc(NC(C)=O)cc4)c3o2)cc(OC)c1OC,265 to 270
21,CCCSc1nc(N)nc2c1ncn2C1C=CC(CO)C1 (centres undefined),128 to 130
22,Cn1c(C(=O)Nc2cc3c(cn2)[nH]c2ccccc23)cc2ccccc21,300 to 301
23,N#Cc1ccc(C(=O)C(Br)C(Br)c2ccc(C#N)cc2)cc1 (centres undefined),192 to 193
24,CC(C)CC(CS)C(=O)NCC(=O)NCC(=O)O (centres undefined),152 to 156
25,CN1CCC(C2Cc3ccccc3C(=O)N2)CC1 (centres undefined),139 to 141
26,CC(C)[C@H](NC(=O)OCc1csc(N2CCOCC2)n1)C(=O)N[C@@H](Cc1ccccc1)C[C@H](O)[C@H](Cc1ccccc1)NC(=O)OCc1cncs1,169 to 170

# The next lines start with the values.
row,melting point [°C],SMILES
1,198 to 200,CCOC(=O)c1c(=O)c2c(F)c(F)c(F)c(F)c2n2ccccc12
2,248,O=C1Nc2ccccc2SC(c2ccccc2)C1CO (centres undefined)
3,204 to 205,CCCCc1ncc(/C=C(\Cc2cccs2)c2nnn[nH]2)n1Cc1cccc(Cl)c1Cl
4,212,O=C(O)c1c(Br)c(Br)cc2c1OCCO2
5,216,CC(C)(C)C1=NN(c2ccc(C(=O)O)cc2)C(c2cccc(Br)c2)C1 (centres undefined)
6,104 to 105,COC(=O)Cc1ccc(C(F)(F)F)cc1[N+](=O)[O-]
7,> 300,N=C(NO)c1ccc(-c2ccc(-c3ccc(C(=N)NO)o3)cc2)o1
8,109 to 110,CCOC(=NC(=O)c1ccc(F)cc1)N1Cc2ccccc2-c2ccccc2C1
9,167,CCOC(=O)C1=C(C)NC(C)=C(C(=O)OC(C)C)C1c1cccc2ccccc12 (centres undefined)
10,130 to 131,CC(C)(C)c1cc(C2SCC(=O)N2CCCBr)cc(C(C)(C)C)c1O (centres undefined)
11,70 to 72,CCCCCCCCCCCCCCOc1ccc(C(C)=O)o1
12,177 to 179,CCCCOC(=O)Cc1ccc(N[C@@H](CCC(N)=O)C(=O)O)cc1
13,162,CC(=O)CCCCCC(=O)N[C@@H](C)C(=O)N[C@H](CCC(=O)OCc1ccccc1)C(N)=O
14,155 to 157,Cn1cc(C2=C(c3cn(CCCS)c4ccccc34)C(=O)NC2=O)c2ccccc21
15,139,O=C(O)Cc1ccc(OCc2ccccc2)cc1OCc1ccccc1
16,170 to 172,O=C(O)c1ccccc1NCCCN1c2ccccc2CCc2ccccc21
17,140 to 145,CCO[C@@H](Cc1ccc(OCCc2nc(-c3ccc(-c4ccccc4)cc3)oc2C)c2ccccc12)C(=O)O
18,252 to 253,CC(C)c1c(C(=O)c2cc(Cl)cc(Cl)c2)[nH]c(=O)[nH]c1=O
19,225 to 226,COc1cc(C=CC(=O)Nc2c(C)nc3c(C)cc(C)cc3c2-c2ccccc2Cl)cc(OC)c1OC(C)=O
20,85 to 87,CC(=O)Oc1ccccc1C=C1CCCc2cc(C)cnc21
21,188 to 190,CCOC(=O)c1c([N+](=O)[O-])c(-c2cccc([N+](=O)[O-])c2)[nH]c(=O)c1C(=O)OCC
22,164 to 165,O=C1CCNC(=O)C1C(=O)c1ccccc1 (centres undefined)
23,83,CS(=O)(=O)c1ccc(-c2ccccc2C=C2CCCCC2)cc1

row,melting point [°C],SMILES
1,219 to 220,CCN1c2ncccc2C(=O)N(C)c2ccc(-c3c[nH]c(C(C)=O)c3)nc21
2,114,O=C1c2ccccc2C(=O)N1C1CC=CCC1 (centres undefined)
3,167 to 169,N#CC(C=O)=C(c1ccc(F)cc1)c1ccc(F)cc1
4,202 to 204,Cc1cc(C)cc(NC(=O)[C@@H](C)NC(=O)c2cc([N+](=O)[O-])c(Cl)c([N+](=O)[O-])c2)c1
5,160,CC(=O)Nc1ccc(NC(=O)c2ccc(O)cc2)cc1
6,168 to 169,N#Cc1cnn(-c2cc(Cl)c(Cl)c(Cl)c2Cl)c1N
7,174 to 176,Cc1cccc(C(=O)O)c1NC(=O)COc1ccccc1
8,153 to 157,CC(Oc1cc2sc(NC(=O)CCCN3CCCC3)nc2cc1F)c1c(Cl)ccc(F)c1Cl (centres undefined)
9,126 to 128,CCCCc1nn(-c2ccc([N+](=O)[O-])cc2C(F)(F)F)c(=O)[nH]1
10,190 to 202,CCOC(=O)c1[nH]cc2c1NC1=C(C(=O)CCC1)C2c1ccc(Sc2nc3cccnc3[nH]2)o1 (centres undefined)
11,129 to 131,c1ccc(SC2(Sc3ccccc3)CCCn3cc(-c4ccccc4)nc32)cc1
12,138 to 140,CC(C)C(=O)O[C@@H](OC(=O)ON1C(=O)[C@H](OC(=O)c2ccccc2)[C@@H](OC(=O)c2ccccc2)C1=O)C(C)C
13,206 to 208,O=C(c1ccncc1)[N+]1([O-])CCN(C2c3ccc(Cl)cc3OCc3cccnc32)CC1 (centres undefined)
14,177,O=[N+]([O-])c1c(Cl)cc(-c2n[nH]cc2Cl)cc1Cl
15,209 to 213,Cc1ccccc1Oc1nnc(Cl)c(C)c1O
16,170 to 172,COc1ccc([C@@H]2c3ccccc3C[C@@H]3CC(=O)N(C)CCN32)cc1 (racemic)
17,177 to 178,COC(=O)[C@H](CS)NC(=O)[C@@H]1CCC(=S)N1
18,248 to 249,Cc1nc(N2CCN(Cc3ccccc3)C2=O)sc1C(=O)O
19,210,CCCCc1nc2cnccc2n1Cc1ccc(C(=O)O)cc1
20,208 to 211,O=c1nc(N2CCCC(O)C2)sc2ncccc12 (centres undefined)
21,220 to 226,Nc1ncc2c(n1)-c1cccnc1CC2
22,131,C#CCNC(=O)C(c1ccccc1)c1ccccc1
23,44 to 46,CCOC(=O)CC(NC(=O)c1ccccc1)C(=O)C(C)C (centres undefined)
